Experimental data taken from PubChem BioAssay (NCI).
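Each compound was tested at five concentrations against cells in 96-well plates for 48 hours. Here, GI50 denotes the concentration required for 50% inhibition of growth. At the TGI there is no net growth.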

Key:
Assay in all cases: growth of human tumour cells (NCI), 48 h
[1] = system: MALME-3M melanoma
[2] = system: OVCAR-4 ovarian
[3] = system: HOP-62 NSCLC
[4] = system: CCRF-CEM leukemia
[5] = system: MOLT-4 leukemia
[6] = system: SR leukemia
[7] = system: COLO 205 colon
[8] = system: A549 NSCLC
[9] = system: SW-620 colon
[10] = system: MDA-MB-435
[11] = system: PC-3 prostate
[12] = system: SK-MEL-5 melanoma
[13] = system: NCI-H460 lung
[14] = system: K-562 leukemia
[15] = system: OVCAR-5 ovarian
[16] = system: NCI-H23 lung
[17] = system: SN12C renal
[18] = system: UO-31 renal
[19] = system: OVCAR-3 ovarian
[20] = system: HL-60(TB) leukemia
[21] = system: HOP-92 NSCLC
[22] = system: 786-0 renal
[23] = system: LOX IMVI melanoma
[24] = system: HCC-2998 colon
[25] = system: HS 578T breast
[26] = system: A498 renal
[27] = system: SF-268 CNS
[28] = system: HT29 colon
[29] = system: NCI-H522 lung
[30] = system: DU-145 prostate
[31] = system: SNB-19 CNS
[32] = system: ACHN renal
[33] = system: IGROV1 ovarian
[34] = system: TK-10 renal
[35] = system: U251 CNS
[36] = system: SF-539 CNS
[37] = system: UACC-257 melanoma
[38] = system: NCI-H226 lung
[39] = system: MCF7 breast
[40] = system: KM12 colon
[41] = system: CAKI-1 renal
[42] = system: OVCAR-8 ovarian
[43] = system: SK-MEL-28 melanoma
[44] = system: SK-MEL-2 melanoma
[45] = system: BT-549 breast
[46] = system: T-47D breast
[47] = system: NCI/ADR-RES ovarian
[48] = system: UACC-62 melanoma
[49] = system: HCT-116 colon
[50] = system: RXF 393 renal
[51] = system: SK-OV-3 ovarian
[52] = system: RPMI-8226 leukemia
[53] = system: EKVX NSCLC
[54] = system: SNB-75 CNS
[55] = system: HCT-15 colon
[56] = system: SF-295 CNS
[57] = system: MDA-MB-231 breast

Question: For `C#CCN(C)CCCOc1ccc(NCc2ccc(C(=O)NO)cc2)cc1Cl`, which GI50 [1] is on record?
Answer: 1.11 µM

Question: And the TGI [1]?
Answer: 6.9 µM

Question: What about the GI50 [2] of the same compound?
Answer: 3.4 µM

Question: What about the TGI [2] of the same compound?
Answer: > 100 µM

Question: What about the GI50 [3] of the same compound?
Answer: 2.8 µM

Question: And the TGI [3]?
Answer: 16.3 µM

Question: And the GI50 [4]?
Answer: 0.632 µM

Question: What about the TGI [4] of the same compound?
Answer: > 100 µM

Question: What about the GI50 [5] of the same compound?
Answer: 1.46 µM

Question: And the TGI [5]?
Answer: > 100 µM

Question: And the GI50 [6]?
Answer: 0.724 µM

Question: And the TGI [6]?
Answer: > 100 µM

Question: And the GI50 [7]?
Answer: 2.38 µM

Question: And the TGI [7]?
Answer: 6.92 µM

Question: And the GI50 [8]?
Answer: 2.71 µM

Question: And the TGI [8]?
Answer: 15.3 µM

Question: And the GI50 [9]?
Answer: 2.18 µM

Question: What about the TGI [9] of the same compound?
Answer: 10.6 µM

Question: And the GI50 [10]?
Answer: 2.59 µM

Question: What about the TGI [10] of the same compound?
Answer: 12.4 µM

Question: What about the GI50 [11] of the same compound?
Answer: 1.94 µM

Question: What about the TGI [11] of the same compound?
Answer: 22.8 µM

Question: And the GI50 [12]?
Answer: 1.51 µM

Question: And the TGI [12]?
Answer: 3.41 µM

Question: And the GI50 [13]?
Answer: 2.08 µM

Question: What about the TGI [13] of the same compound?
Answer: 14.6 µM

Question: And the GI50 [14]?
Answer: 2.16 µM

Question: What about the TGI [14] of the same compound?
Answer: > 100 µM

Question: What about the GI50 [15] of the same compound?
Answer: 2.38 µM

Question: What about the TGI [15] of the same compound?
Answer: 18.4 µM

Question: What about the GI50 [16] of the same compound?
Answer: 2.18 µM

Question: And the TGI [16]?
Answer: 5.83 µM

Question: What about the GI50 [17] of the same compound?
Answer: 2.69 µM

Question: And the TGI [17]?
Answer: 17.4 µM

Question: And the GI50 [18]?
Answer: 0.5 µM

Question: What about the TGI [18] of the same compound?
Answer: 2.78 µM

Question: And the GI50 [19]?
Answer: 2.06 µM

Question: And the TGI [19]?
Answer: 18.2 µM

Question: What about the GI50 [20] of the same compound?
Answer: 1.37 µM

Question: And the TGI [20]?
Answer: 44.4 µM

Question: What about the GI50 [21] of the same compound?
Answer: 1.37 µM

Question: What about the TGI [21] of the same compound?
Answer: 5.92 µM

Question: What about the GI50 [22] of the same compound?
Answer: 3.18 µM

Question: And the TGI [22]?
Answer: 14.3 µM

Question: And the GI50 [23]?
Answer: 1.76 µM

Question: What about the TGI [23] of the same compound?
Answer: 3.46 µM

Question: What about the GI50 [24] of the same compound?
Answer: 2.66 µM

Question: And the TGI [24]?
Answer: 12.3 µM

Question: And the GI50 [25]?
Answer: 1.85 µM

Question: What about the TGI [25] of the same compound?
Answer: 8.63 µM

Question: What about the GI50 [26] of the same compound?
Answer: 1.11 µM

Question: What about the TGI [26] of the same compound?
Answer: 2.75 µM

Question: And the GI50 [27]?
Answer: 2.72 µM

Question: And the TGI [27]?
Answer: 22.9 µM

Question: What about the GI50 [28] of the same compound?
Answer: 2.96 µM

Question: And the TGI [28]?
Answer: 20.5 µM

Question: What about the GI50 [29] of the same compound?
Answer: 1.07 µM

Question: And the TGI [29]?
Answer: 6.51 µM

Question: What about the GI50 [30] of the same compound?
Answer: 2.19 µM

Question: And the TGI [30]?
Answer: 14.8 µM

Question: And the GI50 [31]?
Answer: 3.08 µM

Question: And the TGI [31]?
Answer: 16.8 µM

Question: And the GI50 [32]?
Answer: 2.62 µM

Question: What about the TGI [32] of the same compound?
Answer: 10.5 µM

Question: What about the GI50 [33] of the same compound?
Answer: 1.41 µM

Question: And the TGI [33]?
Answer: 4.47 µM

Question: What about the GI50 [34] of the same compound?
Answer: 1.91 µM

Question: What about the TGI [34] of the same compound?
Answer: 10.1 µM

Question: What about the GI50 [35] of the same compound?
Answer: 2.16 µM

Question: What about the TGI [35] of the same compound?
Answer: 10 µM

Question: What about the GI50 [36] of the same compound?
Answer: 2.05 µM

Question: What about the TGI [36] of the same compound?
Answer: 10.3 µM

Question: What about the GI50 [37] of the same compound?
Answer: 1.42 µM

Question: And the TGI [37]?
Answer: 31.1 µM

Question: And the GI50 [38]?
Answer: 2.45 µM

Question: What about the TGI [38] of the same compound?
Answer: 16.9 µM

Question: And the GI50 [39]?
Answer: 2.83 µM

Question: And the TGI [39]?
Answer: 21 µM

Question: What about the GI50 [40] of the same compound?
Answer: 2.67 µM

Question: And the TGI [40]?
Answer: 12.6 µM

Question: And the GI50 [41]?
Answer: 2.33 µM

Question: And the TGI [41]?
Answer: 11.7 µM

Question: And the GI50 [42]?
Answer: 1.4 µM

Question: What about the TGI [42] of the same compound?
Answer: > 100 µM

Question: What about the GI50 [43] of the same compound?
Answer: 2.57 µM

Question: What about the TGI [43] of the same compound?
Answer: 11.5 µM

Question: What about the GI50 [44] of the same compound?
Answer: 2.77 µM

Question: And the TGI [44]?
Answer: 8.66 µM

Question: And the GI50 [45]?
Answer: 2.76 µM

Question: What about the TGI [45] of the same compound?
Answer: 37.3 µM

Question: What about the GI50 [46] of the same compound?
Answer: 1.85 µM

Question: What about the TGI [46] of the same compound?
Answer: 18.7 µM

Question: And the GI50 [47]?
Answer: 0.738 µM

Question: And the TGI [47]?
Answer: > 100 µM

Question: What about the GI50 [48] of the same compound?
Answer: 1.61 µM

Question: And the TGI [48]?
Answer: 5.27 µM

Question: What about the GI50 [49] of the same compound?
Answer: 1.43 µM

Question: What about the TGI [49] of the same compound?
Answer: 10.9 µM

Question: What about the GI50 [50] of the same compound?
Answer: 1.22 µM

Question: And the TGI [50]?
Answer: 3.2 µM

Question: And the GI50 [51]?
Answer: 2.01 µM

Question: What about the TGI [51] of the same compound?
Answer: 10.8 µM

Question: And the GI50 [52]?
Answer: 1.56 µM

Question: And the TGI [52]?
Answer: 12.3 µM

Question: And the GI50 [53]?
Answer: 3.6 µM

Question: And the TGI [53]?
Answer: 22.5 µM

Question: What about the GI50 [54] of the same compound?
Answer: 2.28 µM

Question: What about the TGI [54] of the same compound?
Answer: 16.6 µM

Question: And the GI50 [55]?
Answer: 0.674 µM

Question: And the TGI [55]?
Answer: 19.4 µM

Question: What about the GI50 [56] of the same compound?
Answer: 1.84 µM

Question: And the TGI [56]?
Answer: 3.8 µM

Question: What about the GI50 [57] of the same compound?
Answer: 2.1 µM

Question: And the TGI [57]?
Answer: 13.6 µM
